Source: ChEMBL document CHEMBL2396621, “Design, synthesis and biological evaluation of 2-mercapto-3-phenethylquinazoline bearing anilide fragments as potential antitumor agents: molecular docking study” (2013)

Columns and labels:
Type in all cases: functional
OVCAR-8 = assay: Cytotoxicity against human OVCAR8 cells assessed as growth inhibition at 10 uM after 48 hrs by coulter counter analysis; conditions: OVCAR-8, 48 h, read-out: GI
SK-MEL-28 = assay: Cytotoxicity against human SK-MEL-28 cells assessed as growth inhibition at 10 uM after 48 hrs by coulter counter analysis; conditions: SK-MEL-28, 48 h, read-out: GI
MDA-MB-468 = assay: Cytotoxicity against human MDA-MB-468 cells assessed as growth inhibition at 10 uM after 48 hrs by coulter counter analysis; conditions: MDA-MB-468, 48 h, read-out: GI
OVCAR-4 = assay: Cytotoxicity against human OVCAR4 cells assessed as growth inhibition at 10 uM after 48 hrs by coulter counter analysis; conditions: OVCAR-4, 48 h, read-out: GI
HCT-116 = assay: Cytotoxicity against human HCT116 cells assessed as growth inhibition at 10 uM after 48 hrs by coulter counter analysis; conditions: HCT-116, 48 h, read-out: GI
UO-31 = assay: Cytotoxicity against human UO31 cells assessed as growth inhibition at 10 uM after 48 hrs by coulter counter analysis; conditions: UO-31, 48 h, read-out: GI
DU-145 = assay: Cytotoxicity against human DU145 cells assessed as growth inhibition at 10 uM after 48 hrs by coulter counter analysis; conditions: DU-145, 48 h, read-out: GI
[1] = Cytotoxicity against human EKVX cells assessed as growth inhibition at 10 uM after 48 hrs by coulter counter analysis; conditions: read-out: GI
Malme-3M = assay: Cytotoxicity against human MALME-3M cells assessed as growth inhibition at 10 uM after 48 hrs by coulter counter analysis; conditions: read-out: GI
RXF 393 = assay: Cytotoxicity against human RXF393 cells assessed as growth inhibition at 10 uM after 48 hrs by coulter counter analysis; conditions: RXF 393, 48 h, read-out: GI
M14 = assay: Cytotoxicity against human M14 cells assessed as growth inhibition at 10 uM after 48 hrs by coulter counter analysis; conditions: M14, 48 h, read-out: GI
OVCAR-5 = assay: Cytotoxicity against human OVCAR5 cells assessed as growth inhibition at 10 uM after 48 hrs by coulter counter analysis; conditions: OVCAR-5, 48 h, read-out: GI
SK-MEL-5 = assay: Cytotoxicity against human SK-MEL-5 cells assessed as growth inhibition at 10 uM after 48 hrs by coulter counter analysis; conditions: SK-MEL-5, 48 h, read-out: GI
NCI-H23 = assay: Cytotoxicity against human NCI-H23 cells assessed as growth inhibition at 10 uM after 48 hrs by coulter counter analysis; conditions: NCI-H23, 48 h, read-out: GI
SF-539 = assay: Cytotoxicity against human SF539 cells assessed as growth inhibition at 10 uM after 48 hrs by coulter counter analysis; conditions: SF-539, 48 h, read-out: GI
NCI-H322M = assay: Cytotoxicity against human NCI-H322M cells assessed as growth inhibition at 10 uM after 48 hrs by coulter counter analysis; conditions: read-out: GI
NCI-H460 = assay: Cytotoxicity against human NCI-H460 cells assessed as growth inhibition at 10 uM after 48 hrs by coulter counter analysis; conditions: NCI-H460, 48 h, read-out: GI
786-0 = assay: Cytotoxicity against human 786-0 cells assessed as growth inhibition at 10 uM after 48 hrs by coulter counter analysis; conditions: 786-0, 48 h, read-out: GI
MDA-MB-435 = assay: Cytotoxicity against human MDA-MB-435 cells assessed as growth inhibition at 10 uM after 48 hrs by coulter counter analysis; conditions: MDA-MB-435, 48 h, read-out: GI
IGROV-1 = assay: Cytotoxicity against human IGROV1 cells assessed as growth inhibition at 10 uM after 48 hrs by coulter counter analysis; conditions: IGROV-1, 48 h, read-out: GI
KM12 = assay: Cytotoxicity against human KM12 cells assessed as growth inhibition at 10 uM after 48 hrs by coulter counter analysis; conditions: KM12, 48 h, read-out: GI
T47D = assay: Cytotoxicity against human T47D cells assessed as growth inhibition at 10 uM after 48 hrs by coulter counter analysis; conditions: read-out: GI
LOX IMVI = assay: Cytotoxicity against human LOXIMVI cells assessed as growth inhibition at 10 uM after 48 hrs by coulter counter analysis; conditions: read-out: GI
HOP-62 = assay: Cytotoxicity against human HOP62 cells assessed as growth inhibition at 10 uM after 48 hrs by coulter counter analysis; conditions: HOP-62, 48 h, read-out: GI
A498 = assay: Cytotoxicity against human A498 cells assessed as growth inhibition at 10 uM after 48 hrs by coulter counter analysis; conditions: A498, 48 h, read-out: GI
SN12C = assay: Cytotoxicity against human SN12C cells assessed as growth inhibition at 10 uM after 48 hrs by coulter counter analysis; conditions: read-out: GI
COLO 205 = assay: Cytotoxicity against human COLO205 cells assessed as growth inhibition at 10 uM after 48 hrs by coulter counter analysis; conditions: COLO 205, 48 h, read-out: GI
SNB-75 = assay: Cytotoxicity against human SNB75 cells assessed as growth inhibition at 10 uM after 48 hrs by coulter counter analysis; conditions: SNB-75, 48 h, read-out: GI
UACC-62 = assay: Cytotoxicity against human UACC62 cells assessed as growth inhibition at 10 uM after 48 hrs by coulter counter analysis; conditions: UACC-62, 48 h, read-out: GI
Hs-578T = assay: Cytotoxicity against human Hs578T cells assessed as growth inhibition at 10 uM after 48 hrs by coulter counter analysis; conditions: read-out: GI
UACC-257 = assay: Cytotoxicity against human UACC257 cells assessed as growth inhibition at 10 uM after 48 hrs by coulter counter analysis; conditions: UACC-257, 48 h, read-out: GI
SK-OV-3 = assay: Cytotoxicity against human SKOV3 cells assessed as growth inhibition at 10 uM after 48 hrs by coulter counter analysis; conditions: SK-OV-3, 48 h, read-out: GI
PC-3 = assay: Cytotoxicity against human PC3 cells assessed as growth inhibition at 10 uM after 48 hrs by coulter counter analysis; conditions: PC-3, 48 h, read-out: GI
SNB-19 = assay: Cytotoxicity against human SNB19 cells assessed as growth inhibition at 10 uM after 48 hrs by coulter counter analysis; conditions: SNB-19, 48 h, read-out: GI
BT-549 = assay: Cytotoxicity against human BT549 cells assessed as growth inhibition at 10 uM after 48 hrs by coulter counter analysis; conditions: BT-549, 48 h, read-out: GI
NCI-H226 = assay: Cytotoxicity against human NCI-H226 cells assessed as growth inhibition at 10 uM after 48 hrs by coulter counter analysis; conditions: NCI-H226, 48 h, read-out: GI
A549 = assay: Cytotoxicity against human A549 cells assessed as growth inhibition at 10 uM after 48 hrs by coulter counter analysis; conditions: A549, 48 h, read-out: GI

Compound | inhibition of growth at 10 µM (OVCAR-8) [%] | inhibition of growth at 10 µM (SK-MEL-28) [%] | inhibition of growth at 10 µM (MDA-MB-468) [%] | inhibition of growth at 10 µM (OVCAR-4) [%] | inhibition of growth at 10 µM (HCT-116) [%] | inhibition of growth at 10 µM (UO-31) [%] | inhibition of growth at 10 µM (DU-145) [%] | inhibition of growth at 10 µM [1] [%] | inhibition of growth at 10 µM (Malme-3M) [%] | inhibition of growth at 10 µM (RXF 393) [%] | inhibition of growth at 10 µM (M14) [%] | inhibition of growth at 10 µM (OVCAR-5) [%] | inhibition of growth at 10 µM (SK-MEL-5) [%] | inhibition of growth at 10 µM (NCI-H23) [%] | inhibition of growth at 10 µM (SF-539) [%] | inhibition of growth at 10 µM (NCI-H322M) [%] | inhibition of growth at 10 µM (NCI-H460) [%] | inhibition of growth at 10 µM (786-0) [%] | inhibition of growth at 10 µM (MDA-MB-435) [%] | inhibition of growth at 10 µM (IGROV-1) [%] | further results
CC(=O)c1ccc(NC(=O)CSc2nc3ccccc3c(=O)n2CCc2ccccc2)cc1 | 42 | 23 | 14 | 25 | 37 | 10 | 11 | 29 | 13 | < 10 | 21 | 10 | 25 | 12 | < 10 | 27 | 31 | < 10 | 23 | 20 | inhibition of growth at 10 µM (KM12): 18%; inhibition of growth at 10 µM (T47D): 19%; inhibition of growth at 10 µM (LOX IMVI): 25%; inhibition of growth at 10 µM (HOP-62): 22%; inhibition of growth at 10 µM (A498): < 10%; inhibition of growth at 10 µM (SN12C): 13%; inhibition of growth at 10 µM (COLO 205): 12%; inhibition of growth at 10 µM (SNB-75): 41%; inhibition of growth at 10 µM (UACC-62): 28%; inhibition of growth at 10 µM (Hs-578T): 33%; inhibition of growth at 10 µM (UACC-257): 36%; inhibition of growth at 10 µM (SK-OV-3): 17%; inhibition of growth at 10 µM (PC-3): 20%; inhibition of growth at 10 µM (SNB-19): 20%; inhibition of growth at 10 µM (BT-549): < 10%; inhibition of growth at 10 µM (NCI-H226): 16%; inhibition of growth at 10 µM (A549): 29%
COc1cc(NC(=O)CSc2nc3ccccc3c(=O)n2CCc2ccccc2)cc(OC)c1OC | 70 | 63 | 71 | 47 | > 100 | > 100 | 55 | 35 | 59 | 55 | 68 | 35 | > 100 | 74 | > 100 | 73 | > 100 | > 100 | > 100 | 92 | inhibition of growth at 10 µM (KM12): 93%; inhibition of growth at 10 µM (T47D): > 100%; inhibition of growth at 10 µM (LOX IMVI): 70%; inhibition of growth at 10 µM (HOP-62): 91%; inhibition of growth at 10 µM (A498): > 100%; inhibition of growth at 10 µM (SN12C): 75%; inhibition of growth at 10 µM (COLO 205): 71%; inhibition of growth at 10 µM (SNB-75): > 100%; inhibition of growth at 10 µM (UACC-62): 25%; inhibition of growth at 10 µM (Hs-578T): 64%; inhibition of growth at 10 µM (UACC-257): 61%; inhibition of growth at 10 µM (SK-OV-3): > 100%; inhibition of growth at 10 µM (PC-3): 59%; inhibition of growth at 10 µM (SNB-19): 73%; inhibition of growth at 10 µM (BT-549): > 100%; inhibition of growth at 10 µM (NCI-H226): > 100%; inhibition of growth at 10 µM (A549): 76%
